Reference: article PMC2270722, “Influence of Cocoa Flavanols and Procyanidins on Free Radical-induced Human Erythrocyte Hemolysis” (Clinical and Developmental Immunology, 2005)

Legend:
human erythrocytes = experiment: in vitro AAPH-induced erythrocyte hemolysis, percent inhibition by purified flavonoids; assay type: cell-based; parameters: level of protection compared with ascorbic acid: dose or concentration left out as unconfirmed; details: for level of protection compared with ascorbic acid: Figure 3; for protection of human erythrocytes from free radical-induced hemolysis at lowest concentration: concentration as low as 2.5 mM; for protection against AAPH-induced erythrocyte hemolysis: concentrations 2.5 to 20 μM, 200 mM AAPH, 3 h
Description: (§1) Influence of cocoa flavanols and procyanidins on free radical-induced human erythrocyte hemolysis QIN YAN ZHU1 , DEREK D. SCHRAMM1 , HEIDRUN B. GROSS1 , ROBERTA R. HOLT1 , SUN H. KIM3 , TOMOKO YAMAGUCHI4 , CATHERINE L. KWIK-URIBE5 , & CARL L. KEEN1,2 1 Department of Nutrition, University of California, One Shields Avenue, Davis, CA 95616-8669, 2 Internal Medicine, University of California, One Shields Avenue, Davis, CA 95616-8669, 3 Department of Food Service Management and Nutrition, Kongju National University, Republic of Korea, 4 Department of Food Science and Nutrition, Nara Women's University, Japan, and 5 Analytical & Applied Sciences, Mars Incorporated, Hackettstown, NJ, USA Abstract Cocoa can be a rich source of antioxidants including the flavan-3-ols, epicatechin and catechin, and their oligomers (procyanidins). While these flavonoids have been reported to reduce the rate of free radical-induced erythrocyte hemolysis in experimental animal models, little is known about their effect on human erythrocyte hemolysis. The major objective of this work was to study the effect of a flavonoid-rich cocoa beverage on the resistance of human erythrocytes to oxidative stress. A second objective was to assess the effects of select purified cocoa flavonoids, epicatechin, catechin, the procyanidin Dimer B2 and one of its major metabolites, 30 -O-methyl epicatechin, on free radical-induced erythrocyte hemolysis in vitro. Peripheral blood was obtained from 8 healthy subjects before and 1, 2, 4 and 8 h after consuming a flavonoid-rich cocoa beverage that provided 0.25 g/kg body weight (BW), 0.375 or 0.50 g/kg BW of cocoa. Plasma flavanol and dimer concentrations were determined for each subject. Erythrocyte hemolysis was evaluated using a controlled peroxidation reaction. Epicatechin, catechin, 30 -O-methyl epicatechin and (-)-epicatechin-(4b . 8)-epicatechin (Dimer B2) were detected in the plasma within 1 h after the consumption of the beverage. […] The duration of the lag time, which reflects the capacity of cells to buffer free radicals, was increased. […] Erythrocytes from subjects consuming flavonoid-rich cocoa show reduced susceptibility to free radical-induced hemolysis p , 0:05. Keywords: Cocoa, flavanol, membrane oxidation, erythrocyte,-catechin, 3 0 -O-methyl epicatechin Introduction Flavonoids are a diverse group of polyphenolic compounds occurring in fruit, vegetables, tea and red wine. Diets rich in these compounds have been associated with a reduced risk for cardiovascular disease (Knekt et al. 2002, Kris-Etherton et al. 2004, Mennen et al. 2004, Morton et al. 2000, Sagara et al. 2004, Sesso et al. 2003). Depending on their processing, cocoa and chocolate can be rich sources of flavonoids, particularly the subclass of oligomeric flavonoids known as procyanidins (Adamson et al. 1999, Sanchez-Rabaneda et al. 2003, Steinberg et al. 2003) (Figure 1). Flavanols and procyanidins isolated from cocoa and chocolate have received considerable attention over the last several years as potential cardiovascular protective agents with putative positive effects on platelet function, blood pressure regulation, nitric oxide production, oxidative defense and the immune system (Heiss et al. 2003, Maron, 2004; Fisher et al. 2003; Pearson et al. 2002, Sadik et al. 2003, Taubert et al. 2003, Wan et al. 2001). ISSN 1740-2522 print/ISSN 1740-2530 online q 2005 Taylor & Francis Group Ltd. DOI: 10.1080/17402520512331329514 Correspondence: Carl L. Keen, Department of Nutrition, University of California, One Shields Avenue, Davis, CA 95616-8669. Tel: 1 530 752 6331. Fax: 1 530 752 8966. E-mail: clkeen@ucdavis.edu Clinical & Developmental Immunology, March 2005; 12(1): 27-34 These compounds can modulate the actions of oxidant-responsive transcription factor NF-kB (Mackenzie et al. 2004), and diets rich in cocoa flavonoids may be associated with reductions in DNA oxidative damage (Orozco et al. 2003). […]

[1] = plasma flavanol and dimer concentrations by HPLC after cocoa beverage; assay type: in vivo, human; details: for time by which detected in the plasma: after consumption of the cocoa beverage, human subjects; for concentration in human plasma reached: after high dose of cocoa (0.50 g/kg BW)
Description: as §1

[2] = antioxidant activity (preliminary, unpublished); details: preliminary work, unpublished data

time by which detected in the plasma [1] [h]	concentration in human plasma reached [1]	Compound	level of protection compared with ascorbic acid (human erythrocytes)	protection of human erythrocytes from free radical-induced hemolysis at lowest concentration (human erythrocytes)	protection against AAPH-induced erythrocyte hemolysis (human erythrocytes)	protection compared with Dimer B2 (human erythrocytes; individual compounds in vitro)	antioxidant activity compared with Dimer B2 [2]
≤ 1	2.86 µM	Oc1cc(O)c2c(c1)O[C@H](c1ccc(O)c(O)c1)[C@H](O)C2 [epicatechin, (-)-epicatechin]	exceeded that of ascorbic acid	significantly protect	dose-dependent protection	stronger protection than Dimer B2	–
–	–	Oc1cc(O)c2c(c1)O[C@H](c1ccc(O)c(O)c1)[C@H](O)[C@H]2c1c(O)cc2c(c1O)C[C@@H](O)[C@@H](c1ccc(O)c(O)c1)O2 [Dimer B5, epicatechin-(4b . 6)-epicatechin]	–	–	–	–	more antioxidant activity than Dimer B2
≤ 1	–	COc1cc([C@H]2Oc3cc(O)cc(O)c3C[C@H]2O)ccc1O [3ʹ-O-methyl epicatechin]	exceeded that of ascorbic acid	significantly protect	dose-dependent protection	–	–
≤ 1	–	(-)-epicatechin-(4β > 8)epicatechin [Dimer B2]	exceeded that of ascorbic acid	–	dose-dependent protection	–	–
≤ 1	210 nm	O.Oc1cc(O)c2c(c1)O[C@H](c1ccc(O)c(O)c1)[C@@H](O)C2 [catechin]	exceeded that of ascorbic acid	significantly protect	dose-dependent protection	–	–
